Source: PMC4624780 (PLoS ONE, 2015)
Square brackets hold non-standard residues; d marks the D form. Peptide text beside a SMILES is read from it. Ahx = NCCCCCC(=O)O

Key:
[1] = tested on: 3A N-terminal (1–52) peptide dimer; format: biochemical, foot-and-mouth disease virus (FMDV)

Compound | inhibition of viral production (FMDV C-S8c1) | reduction of viral yield at concentrations lower than 100 μM (FMDV C-S8c1) | inhibition of viral production at 100 μM (FMDV C-S8c1; 24 h, 100 μM) | intensity of the N-ter dimer band, immunoblotting with polyclonal antibody 479 [1]
CC[C@H](C)[C@H](NC(=O)[C@H](CC(C)C)NC(=O)[C@@H]1CCCN1C(=O)[C@H](CCCNC(=N)N)NC(=O)[C@H](CC(C)C)NC(=O)[C@H](CCC(=O)O)NC(=O)CCCCCNC(=O)[C@H](CCCNC(=N)N)NC(=O)[C@H](CCCNC(=N)N)NC(=O)[C@H](CCCNC(=N)N)NC(=O)[C@H](CCCNC(=N)N)NC(=O)[C@H](CCCNC(=N)N)NC(=O)[C@H](CCCNC(=N)N)NC(=O)[C@@H](N)CCCNC(=N)N)C(=O)N[C@@H](CCC(N)=O)C(=O)N[C@@H](CCC(N)=O)C(N)=O [Peptide R7-α2] (H-RRRRRRR[Ahx]ELRPLIQQ-NH2; N-terminus assumed) | dose dependent inhibition | significant reductions | ca. 50% | 
ELRPLIQQ [α2] |  |  |  | impaired in vitro dimer formation
FFEGMVHDS [α1] |  |  |  | impaired in vitro dimer formation
RRRRRRRXFFEGMVHDS [Peptide R7-α1] | dose dependent inhibition |  |  | 
